Laboratory results taken from patent publication US20250134882A1, “PROTEIN TYROSINE PHOSPHATASE INHIBITORS AND USES THEREOF” (Nerio Therapeutics, Inc., priority 2022, published 2025).

Columns and labels:
[1] = biological target: full-length human PTPN2 (TC45) (1-387) protein (Homo sapiens (Human), UniProt P17706); experiment: Enzymatic assay with full-length PTPN2 and DiFMUP substrate; assay type: biochemical; settings: 0.5 nM PTPN2, 100 μM DiFMUP, 30 min at room temperature
Text: Compounds were subsequently added using a Tecan D300e dispenser. […] A four-parameter curve fit was used to determine IC50 values from % inhibition data.

[2] = test system: murine B16F10 melanoma cell line; experiment: B16F10 IFNγ-induced cellular growth inhibition assay (xCELLigence RTCA); assay type: cell-based; settings: Mus musculus, B16-F10, 48 h; read-out: B16 IFNγ Mediated Growth Inhibition Assay: AVG IC50
Method: Example B: B16F10 Cellular Growth Inhibition Assay Compound activity was determined using an interferon gamma (IFNγ)-induced cellular growth inhibition assay with the murine B16F10 melanoma cell line on an Agilent xCELLigence Real-Time Cell Analysis platform (RTCA). RTCA E-Plate View 96 plates (Agilent, 300601010) were pre-equilibrated with 50 μL of assay media (DMEM+10% FBS, Gibco 10566-024, Gibco 10082-147) at 37° C. in a humidified incubator before taking an initial measurement of impedance (sweep). […] Cells were incubated at room temperature for 20 min to allow cells to settle before placing them in the xCELLigence reader and incubating overnight at 37° C., sweeping wells every 15 minutes. After 24 hours, well readings were paused, plates were removed from the incubator and compounds were added using a Tecan D300e dispenser. […] Assay plates were placed in the xCELLigence reader and swept every 15 minutes. After 48 hours, well readings were normalized to the time point immediately preceding compound addition and the area under the growth curve (AUC) was calculated by the RTCA software and exported.

full-length human PTPN2 (TC45) (1-387) protein, sequence (P17706 other isoform, or with tags, fused parts or gaps): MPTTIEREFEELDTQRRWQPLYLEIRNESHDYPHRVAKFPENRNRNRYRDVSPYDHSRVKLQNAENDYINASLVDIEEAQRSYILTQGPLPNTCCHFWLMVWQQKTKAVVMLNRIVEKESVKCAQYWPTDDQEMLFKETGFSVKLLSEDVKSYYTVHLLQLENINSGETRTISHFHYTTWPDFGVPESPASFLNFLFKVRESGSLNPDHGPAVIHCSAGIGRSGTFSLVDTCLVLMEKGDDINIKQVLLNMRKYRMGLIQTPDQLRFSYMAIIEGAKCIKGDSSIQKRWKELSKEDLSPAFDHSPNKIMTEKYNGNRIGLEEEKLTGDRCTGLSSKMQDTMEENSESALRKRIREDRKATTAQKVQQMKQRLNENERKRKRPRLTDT

IC50 [2] [µM] | Compound | IC50 [1] [µM]
 | CC(C)CCNC1CCc2nc(O)c(N3CC(=O)NS3(=O)=O)c(F)c2C1 (centres unmarked) [Example 4, 5-(4-fluoro-2-hydroxy-6-(isopentylamino)-5,6,7,8-tetrahydroquinolin-3-yl)-1,2,5-thiadiazolidin-3-one 1,1-dioxide] | 70.8
7.82 | CC(C)CCN[C@@H]1C[C@H]2C[C@@H]1c1c2cc(O)c(N2CC(=O)NS2(=O)=O)c1F [Example 3, 5-((1R,3R,4R)-5-fluoro-7-hydroxy-3-(isopentylamino)-1,2,3,4-tetrahydro-1,4-methanonaphthalen-6-yl)-1,2,5-thiadiazolidin-3-one 1,1-dioxide] | 
